Measurements from PMC8622385, “Metabolites of Prickly Rose: Chemodiversity and Digestive-Enzyme-Inhibiting Potential of Rosa acicularis and the Main Ellagitannin Rugosin D” (Plants, 2021).

What was measured:
Assay type in all cases: biochemical
[1] = molecular target: T1, α-amylase from the human pancreas (Homo sapiens, UniProt P04746); experiment: HPLC microfractionation with post-column pancreatic α-amylase inhibition (dyed starch); settings: HPLC zone of R. acicularis leaf extract (July sample), 30 s fractions
T1 construct: α-amylase from human pancreas; purchased Lee Biosolutions, Inc. Cat. No. 120-15; host or cells: human pancreas (tissue-derived)
T1 sequence (P04746 16-511): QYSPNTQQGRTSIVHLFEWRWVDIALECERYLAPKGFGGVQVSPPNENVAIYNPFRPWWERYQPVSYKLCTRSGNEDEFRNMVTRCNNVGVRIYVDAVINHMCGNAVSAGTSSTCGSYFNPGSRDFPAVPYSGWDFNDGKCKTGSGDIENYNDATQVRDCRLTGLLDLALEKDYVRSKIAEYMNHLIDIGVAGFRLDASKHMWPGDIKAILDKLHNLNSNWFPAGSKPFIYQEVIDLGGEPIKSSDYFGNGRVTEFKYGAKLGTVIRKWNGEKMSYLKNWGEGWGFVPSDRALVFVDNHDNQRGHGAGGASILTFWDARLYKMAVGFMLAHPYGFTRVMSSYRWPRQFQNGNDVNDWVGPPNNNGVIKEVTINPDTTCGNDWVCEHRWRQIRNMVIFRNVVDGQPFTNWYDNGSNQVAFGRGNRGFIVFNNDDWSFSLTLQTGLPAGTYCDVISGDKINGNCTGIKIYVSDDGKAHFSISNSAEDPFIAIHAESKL
Description: The probe of the extract was separated by HPLC, and fractions were eluted every 30 sec, collected, dried and mixed with pancreatic α-amylase. The hydrolytic activity of amylase was studied spectrophotometrically using starch azure as a substrate.
HPLC-PDA-ESI-tQ-MS conditions (Section 3.4) were used to separate the enlarged volume of R. acicularis leaf extract (July sample; 25 μL). The eluates (60 µL) were collected every 30 s by an automated fraction collector, a Shimadzu FRC-10A, and dried under a stream of N2. The eluate residue was dissolved in 50% methanol (50 µL) and added to 50 µL of water, 2.5 mL of Remazol-Brilliant-Blue-R-dyed starch (2% suspension in phosphate buffer, pH of 6.8) and 500 μL α-amylase from the human pancreas (0.4 U/mL), incubated for 50 min (37 °C) and the absorbance was measured at 620 nm. […] The value of 100% destruction of Remazol-Brilliant-Blue-R-dyed starch (or 0% content of intact starch compound) was measured for the eluate with a retention time of 0.5–1.0 min.

[2] = molecular target: T2, porcine pancreatic amylase (Sus scrofa, UniProt P00690); experiment: Simulated gastrointestinal digestion of artificial substrate mixture, amylase activity (p-nitrophenol marker, HPLC-DAD); settings: 1000 μg/mL; control = 100% of enzyme activity
T2 construct: α-amylase from porcine pancreas; purchased Sigma-Aldrich Cat. No. 6255; host or cells: porcine pancreas (tissue-derived)
T2 sequence (P00690 16-511): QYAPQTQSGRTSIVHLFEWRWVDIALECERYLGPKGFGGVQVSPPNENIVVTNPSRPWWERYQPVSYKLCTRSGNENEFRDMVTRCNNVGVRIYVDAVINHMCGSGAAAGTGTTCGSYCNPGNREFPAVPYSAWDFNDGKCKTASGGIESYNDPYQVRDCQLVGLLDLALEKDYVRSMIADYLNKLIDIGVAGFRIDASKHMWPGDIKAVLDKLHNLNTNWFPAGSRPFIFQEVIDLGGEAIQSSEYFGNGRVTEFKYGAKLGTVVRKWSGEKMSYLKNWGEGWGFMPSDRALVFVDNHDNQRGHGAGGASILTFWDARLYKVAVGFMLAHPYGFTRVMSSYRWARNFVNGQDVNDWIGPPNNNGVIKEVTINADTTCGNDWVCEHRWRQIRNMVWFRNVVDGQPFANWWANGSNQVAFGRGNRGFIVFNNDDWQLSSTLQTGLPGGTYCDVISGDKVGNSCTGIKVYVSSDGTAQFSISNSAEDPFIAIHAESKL
Source text: To study the inhibitory potential of R. acicularis extracts on the digestive enzymes, we used the standardized static, simulated gastrointestinal digestion method of Minekus et al., based on physiologically relevant conditions of digestion. In brief, the artificial substrate mixture, including ethylidene-p-nitrophenyl-α-D-maltoheptaoside (as a carbohydrate model), Nα-benzoyl-L-arginine-7-amino-4-methylcoumarin hydrochloride (as a protein model) and 4-methylumbelliferyl heptanoate (as a lipid model), was digested with extracts of R. acicularis leaves, flowers, roots and fruits (in doses of 100 μg/mL and 1000 μg/mL) by gastric and intestinal enzymatic and electrolyte mixtures (or juices). […] In a final step, concentrations of specific markers, such as p-nitrophenol, 7-amino-4-methylcoumarin and 4-methylumbelliferone, released from an artificial nutrient mixture, were analyzed by an HPLC-DAD assay. […]
For simulation, the known standardized static gastrointestinal digestion method of Minekus et al. was used with no variation. […] The supernatant was analyzed using an HPLC-DAD assay (Section 3.7) to quantify the level of markers as p-nitrophenol, 7-amino-4-methylcoumarin and 4-methylumbelliferone formed from ethylidene-p-nitrophenyl-α-D-maltoheptaoside, Nα-benzoyl-L-arginine- 7-amino-4-methylcoumarin hydrochloride and 4-methylumbelliferyl heptanoate, respectively. […]

[3] = molecular target: T3, porcine pancreatic lipase (Sus scrofa, UniProt P00591); experiment: Simulated gastrointestinal digestion of artificial substrate mixture, lipase activity (4-methylumbelliferone marker, HPLC-DAD); settings: 1000 μg/mL; control = 100% of enzyme activity
T3 construct: lipase from porcine pancreas; purchased Sigma-Aldrich L3126 (lipase); C3028 (colipase); host or cells: porcine pancreas (tissue-derived)
T3 sequence (P00591 1-450): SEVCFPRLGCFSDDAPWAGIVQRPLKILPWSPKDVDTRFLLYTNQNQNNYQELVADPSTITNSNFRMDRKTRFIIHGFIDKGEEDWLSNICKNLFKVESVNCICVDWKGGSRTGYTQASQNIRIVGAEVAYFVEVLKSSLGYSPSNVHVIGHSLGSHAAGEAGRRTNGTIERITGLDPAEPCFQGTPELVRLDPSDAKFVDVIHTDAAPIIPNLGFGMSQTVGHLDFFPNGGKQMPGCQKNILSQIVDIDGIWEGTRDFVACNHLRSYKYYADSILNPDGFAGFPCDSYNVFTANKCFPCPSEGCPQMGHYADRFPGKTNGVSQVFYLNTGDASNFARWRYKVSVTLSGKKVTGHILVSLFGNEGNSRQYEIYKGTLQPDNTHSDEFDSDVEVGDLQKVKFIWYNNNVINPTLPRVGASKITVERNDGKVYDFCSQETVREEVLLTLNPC
T3 sequence (P02703 23-112 partner): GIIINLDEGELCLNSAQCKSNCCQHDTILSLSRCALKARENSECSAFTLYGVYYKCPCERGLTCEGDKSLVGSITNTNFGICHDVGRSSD
Source text: To study the inhibitory potential of R. acicularis extracts on the digestive enzymes, we used the standardized static, simulated gastrointestinal digestion method of Minekus et al., based on physiologically relevant conditions of digestion [77]. In brief, the artificial substrate mixture, including ethylidene-p-nitrophenyl-α-D-maltoheptaoside (as a carbohydrate model), Nα-benzoyl-L-arginine-7-amino-4-methylcoumarin hydrochloride (as a protein model) and 4-methylumbelliferyl heptanoate (as a lipid model), was digested with extracts of R. acicularis leaves, flowers, roots and fruits (in doses of 100 μg/mL and 1000 μg/mL) by gastric and intestinal enzymatic and electrolyte mixtures (or juices). […] In a final step, concentrations of specific markers, such as p-nitrophenol, 7-amino-4-methylcoumarin and 4-methylumbelliferone, released from an artificial nutrient mixture, were analyzed by an HPLC-DAD assay. […]
For simulation, the known standardized static gastrointestinal digestion method of Minekus et al. [77] was used with no variation. […] The supernatant was analyzed using an HPLC-DAD assay (Section 3.7) to quantify the level of markers as p-nitrophenol, 7-amino-4-methylcoumarin and 4-methylumbelliferone formed from ethylidene-p-nitrophenyl-α-D-maltoheptaoside, Nα-benzoyl-L-arginine- 7-amino-4-methylcoumarin hydrochloride and 4-methylumbelliferyl heptanoate, respectively. […]

Row | Structure (SMILES) | Pancreatic-α-amylase-inhibiting activity of HPLC zone (in words) [1] | also measured
1 | O=C(OC[C@H]1O[C@@H](OC(=O)c2cc(O)c(O)c(O)c2)[C@H](OC(=O)c2cc(O)c(O)c(O)c2)[C@@H](OC(=O)c2cc(O)c(O)c(O)c2)[C@@H]1O)c1cc(O)c(O)c(O)c1 [1,2,3,6-tetra-O-galloyl glucose, 1,2,3,6-Tetra-O-galloyl glucose] | medium activity | 
2 | C[C@H]1O[C@H](O[C@H]2[C@H](O)[C@@H](O)[C@@H](O[C@H]3[C@H](O)[C@@H](O)C(O)O[C@@H]3CO)O[C@@H]2CO)[C@H](O)[C@@H](O)[C@@H]1N[C@H]1C=C(CO)[C@@H](O)[C@H](O)[C@H]1O (some centres unmarked) [Acarbose] |  | Amylase activity (percentage of initial) after simulated gastrointestinal digestion [2]: 55%
3 | O=C(O)[C@H]1O[C@@H](Oc2c(-c3ccc(O)c(O)c3)oc3cc(O)cc(O)c3c2=O)[C@H](O)[C@@H](O)[C@@H]1O [miquelianin, Quercetin-3-O-glucuronide] | medium activity | 
4 | CCCCCCCCCCC[C@@H](C[C@@H]1OC(=O)[C@H]1CCCCCC)OC(=O)[C@H](CC(C)C)NC=O [orlistat, reference compound] |  | Lipase activity (percentage of initial) after simulated gastrointestinal digestion [3]: 38%
5 | O=C(OC1O[C@@H]2COC(=O)c3cc(O)c(O)c(O)c3-c3c(cc(O)c(O)c3O)C(=O)O[C@H]2[C@H](OC(=O)c2cc(O)c(O)c(O)c2)[C@H]1OC(=O)c1cc(O)c(O)c(O)c1)c1cc(O)c(O)c(O)c1 (some centres unmarked) [tellimagrandin II, Tellimagrandin II1] | medium activity | 
